From PubChem BioAssay AID192 (DTP/NCI, 2004)
“And” between values parts separate entries of the source, which are not always exact repeats. Equal entries are not always repeated. Inconclusive results and toxic doses are left out.

Test system: BDF1 mice, B16 melanoma ip, median survival T/C
Assay: NCI In Vivo Anticancer Drug Screen. Data for tumor model B16 Melanoma (intraperitoneal) in B6D2F1 (BDF1) mice
Details: endpoint: median survival time, higher = longer survival
Method: The antitumor activity of compounds was measured in mice bearing transplantable tumors. Survival or tumor size were measured and the results are expressed as the measurement made in the treated group (T) divided by the measurement made in the vehicle treated control group (C). The tumor model used in this assay is B16 Melanoma (intraperitoneal) in B6D2F1 (BDF1) mice

[1] = dose: 25.0 mg/kg/injection, schedule: Q01DX009 (ip), vehicle: water
[2] = dose: 50.0 mg/kg/injection, schedule: Q01DX009 (ip), vehicle: water
[3] = dose: 100.0 mg/kg/injection, schedule: Q01DX009 (ip), vehicle: saline with Tween-80
[4] = dose: 200.0 mg/kg/injection, schedule: Q01DX009 (ip), vehicle: saline with Tween-80
[5] = dose: 400.0 mg/kg/injection, schedule: Q01DX009 (ip), vehicle: saline with Tween-80
[6] = dose: 25.0 mg/kg/injection, schedule: Q01DX009 (ip), vehicle: saline with Tween-80
[7] = dose: 50.0 mg/kg/injection, schedule: Q01DX009 (ip), vehicle: saline with Tween-80
[8] = dose: 6.25 mg/kg/injection, schedule: Q01DX009 (ip), vehicle: Klucel (hydroxypropylcellulose) (HPC)
[9] = dose: 12.5 mg/kg/injection, schedule: Q01DX009 (ip), vehicle: Klucel (hydroxypropylcellulose) (HPC)
[10] = dose: 50.0 mg/kg/injection, schedule: Q01DX009 (ip), vehicle: Klucel (hydroxypropylcellulose) (HPC)
[11] = dose: 12.5 mg/kg/injection, schedule: Q01DX009 (ip), vehicle: saline with Tween-80
[12] = dose: 50.0 mg/kg/injection, schedule: Q04DX003 (ip), vehicle: Klucel (hydroxypropylcellulose) (HPC)
[13] = dose: 100.0 mg/kg/injection, schedule: Q04DX003 (ip), vehicle: Klucel (hydroxypropylcellulose) (HPC)
[14] = dose: 200.0 mg/kg/injection, schedule: Q04DX003 (ip), vehicle: Klucel (hydroxypropylcellulose) (HPC)
[15] = dose: 12.5 mg/kg/injection, schedule: Q01DX009 (ip), vehicle: saline
[16] = dose: 25.0 mg/kg/injection, schedule: Q01DX009 (ip), vehicle: saline
[17] = dose: 50.0 mg/kg/injection, schedule: Q01DX009 (ip), vehicle: saline
[18] = dose: 100.0 mg/kg/injection, schedule: Q01DX009 (ip), vehicle: saline
[19] = dose: 50.0 mg/kg/injection, schedule: Q04DX003 (ip), vehicle: saline
[20] = dose: 25.0 mg/kg/injection, schedule: Q01DX009 (ip), vehicle: Klucel (hydroxypropylcellulose) (HPC)
[21] = dose: 100.0 mg/kg/injection, schedule: Q01DX009 (ip), vehicle: Klucel (hydroxypropylcellulose) (HPC)
[22] = dose: 200.0 mg/kg/injection, schedule: Q01DX009 (ip), vehicle: Klucel (hydroxypropylcellulose) (HPC)
[23] = dose: 200.0 mg/kg/injection, schedule: Q01DX009 (ip), vehicle: saline
[24] = dose: 400.0 mg/kg/injection, schedule: Q01DX009 (ip), vehicle: Klucel (hydroxypropylcellulose) (HPC)

Structure (SMILES): O=C(NO)c1ccncc1
- T/C [1]: 96 % of control
- T/C [2]: 106 % of control and 111 % of control
- T/C (dose: 100.0 mg/kg/injection, schedule: Q01DX009 (ip), vehicle: water): 93 % of control and 105 % of control
- T/C (dose: 200.0 mg/kg/injection, schedule: Q01DX009 (ip), vehicle: water): 100 % of control
- T/C (dose: 300.0 mg/kg/injection, schedule: Q01DX009 (ip), vehicle: water): 93 % of control
- T/C (dose: 400.0 mg/kg/injection, schedule: Q01DX009 (ip), vehicle: water): 100 % of control
- T/C (dose: 600.0 mg/kg/injection, schedule: Q01DX009 (ip), vehicle: water): 105 % of control and 107 % of control
- T/C (dose: 700.0 mg/kg/injection, schedule: Q01DX009 (ip), vehicle: water): 100 % of control

Structure (SMILES): OCc1cc2c([nH]c3ccccc32)c(C(O)CO)n1 (stereo not given)
- T/C (dose: 20.0 mg/kg/injection, schedule: Q01DX009 (ip), vehicle: saline with Tween-80): 102 % of control
- T/C (dose: 40.0 mg/kg/injection, schedule: Q01DX009 (ip), vehicle: saline with Tween-80): 99 % of control
- T/C (dose: 80.0 mg/kg/injection, schedule: Q01DX009 (ip), vehicle: saline with Tween-80): 97 % of control

Structure (SMILES): c1ccc(-c2nn3c(-c4ccccc4)nnc3o2)cc1
- T/C [3]: 93 % of control
- T/C [4]: 92 % of control
- T/C [5]: 92 % of control

Structure (SMILES): N#CC1C(=O)c2ccccc2C1=O
- T/C [6]: 114 % of control
- T/C [7]: 106 % of control

Structure (SMILES): CS(=O)(=O)OCCN(CCOS(C)(=O)=O)c1ccc(C=Nc2ccc3oc(=O)ccc3c2)cc1
- T/C [8]: 120 % of control
- T/C [9]: 118 % of control
- T/C [10]: 118 % of control

Structure (SMILES): O=[N+]([O-])c1ccc(Cl)c2c([N+](=O)[O-])cccc12
- T/C [11]: 100 % of control
- T/C [6]: 91 % of control
- T/C [7]: 93 % of control and 94 % of control

Structure (SMILES): O=C1C(=C(C(F)(F)F)C(F)(F)F)CCc2ccccc21
- T/C [12]: 95 % of control
- T/C [13]: 95 % of control
- T/C [14]: 100 % of control

Structure (SMILES): COc1cccc2c1C(=O)c1c(O)c3c(c(O)c1C2=O)C[C@@](O)(C(=O)CO)C[C@@H]3OC1CC(N(C)C)C(O)C(C)O1 (stereo not given in full)
- T/C (dose: 0.63 mg/kg/injection, schedule: Q01DX001 (ip), vehicle: water): 119 % of control
- T/C (dose: 1.73 mg/kg/injection, schedule: Q04DX003 (ip), vehicle: water): 98 % of control
- T/C (dose: 3.6 mg/kg/injection, schedule: Q01DX001 (ip), vehicle: water): 117 % of control
- T/C (dose: 4.8 mg/kg/injection, schedule: Q04DX003 (ip), vehicle: water): 94 % of control and 113 % of control
- T/C (dose: 5.0 mg/kg/injection, schedule: Q01DX001 (ip), vehicle: water): 166 % of control and 170 % of control
- T/C (dose: 6.0 mg/kg/injection, schedule: Q01DX001 (ip), vehicle: water): 104 % of control

Structure (SMILES): Clc1ccc(Sc2ccc(Cl)cc2)cc1
- T/C [3]: 101 % of control
- T/C [4]: 95 % of control
- T/C [5]: 93 % of control

Structure (SMILES): CCNC(Cc1ccccc1)C1CCCO1 (stereo not given)
- T/C (dose: 6.25 mg/kg/injection, schedule: Q01DX009 (ip), vehicle: saline): 122 % of control
- T/C [15]: 120 % of control
- T/C [16]: 115 % of control
- T/C [17]: 115 % of control
- T/C [18]: 100 % of control

Structure (SMILES): C1CC[N-]CC1.C1CC[N-]CC1.[Cl][Rh]([Cl])[Cl]
- T/C [11]: 100 % of control
- T/C [6]: 95 % of control
- T/C [7]: 102 % of control
- T/C [3]: 94 % of control
- T/C [4]: 96 % of control

Structure (SMILES): COc1ccc(N=O)c(O)c1
- T/C (dose: 6.25 mg/kg/injection, schedule: Q01DX009 (ip), vehicle: saline with Tween-80): 97 % of control
- T/C [11]: 97 % of control
- T/C [6]: 90 % of control
- T/C [16]: 197 % of control
- T/C [7]: 109 % of control
- T/C [17]: 95 % of control
- T/C [18]: 90 % of control

Structure (SMILES): FC(F)(F)c1ccc2c(c1)N(CCCNCCN1CCOCC1)c1ccccc1S2
- T/C (dose: 1.56 mg/kg/injection, schedule: Q01DX009 (ip), vehicle: saline): 105 % of control
- T/C (dose: 1.56 mg/kg/injection, schedule: Q04DX003 (ip), vehicle: saline): 93 % of control and 95 % of control
- T/C (dose: 3.12 mg/kg/injection, schedule: Q01DX009 (ip), vehicle: saline): 88 % of control
- T/C (dose: 3.12 mg/kg/injection, schedule: Q04DX003 (ip), vehicle: saline): 102 % of control
- T/C (dose: 6.25 mg/kg/injection, schedule: Q04DX003 (ip), vehicle: saline): 100 % of control and 105 % of control
- T/C [15]: 100 % of control
- T/C (dose: 12.5 mg/kg/injection, schedule: Q04DX003 (ip), vehicle: saline): 93 % of control and 107 % of control
- T/C (dose: 25.0 mg/kg/injection, schedule: Q04DX003 (ip), vehicle: saline): 99 % of control and 100 % of control
- T/C [19]: 90 % of control

Structure (SMILES): CCC(CO)NC(=O)C1C=C2c3cccc4[nH]cc(c34)CC2N(C)C1 (stereo not given)
- T/C [8]: 93 % of control
- T/C [9]: 98 % of control
- T/C [20]: 91 % of control
- T/C [10]: 86 % of control
- T/C [21]: 86 % of control
- T/C [22]: 111 % of control

Structure (SMILES): O=C1C(Cl)=C(Nc2ccc(C(=O)Nc3ccc4cc(S(=O)(=O)O)cc(S(=O)(=O)O)c4c3)cc2)C(=O)C(Cl)=C1Nc1ccc(C(=O)Nc2ccc3cc(S(=O)(=O)O)cc(S(=O)(=O)O)c3c2)cc1
- T/C [17]: 109 % of control
- T/C [18]: 102 % of control
- T/C [23]: 100 % of control

Structure (SMILES): COc1ccc(C2CCc3cc4c(cc3/C2=N/OC(C)=O)OCO4)cc1OC (stereo not given)
- T/C [21]: 109 % of control
- T/C [22]: 110 % of control
- T/C [24]: 105 % of control

Structure (SMILES): CC(C)CC(NC(=O)OCc1ccccc1)C(=O)O (stereo not given)
- T/C (dose: 100.0 mg/kg/injection, schedule: Q04DX003 (ip), vehicle: saline with Tween-80): 102 % of control
- T/C [4]: 106 % of control
- T/C [5]: 121 % of control

Structure (SMILES): CC(=O)Nc1ccc(S(=O)(=O)CO)cc1
- T/C [11]: 97 % of control and 110 % of control
- T/C [6]: 100 % of control and 114 % of control
- T/C [7]: 95 % of control and 96 % of control
- T/C [3]: 92 % of control and 115 % of control
- T/C [4]: 90 % of control and 110 % of control
- T/C [5]: 89 % of control and 99 % of control

Structure (SMILES): Cc1cc(=O)[nH]c2c(C)cc(-c3cc(C)c4[nH]c(=O)cc(C)c4c3)cc12
- T/C [18]: 102 % of control
- T/C [23]: 108 % of control
- T/C (dose: 400.0 mg/kg/injection, schedule: Q01DX009 (ip), vehicle: saline): 105 % of control

Structure (SMILES): NCCCOc1ccc([N+](=O)[O-])cc1Cl
- T/C [16]: 104 % of control
- T/C [17]: 104 % of control
- T/C [18]: 102 % of control

Structure (SMILES): O=C(Cl)c1ccc(OC(Cl)(Cl)Cl)cc1
- T/C [21]: 100 % of control
- T/C [22]: 93 % of control
- T/C [24]: 86 % of control

Structure (SMILES): CC(CN(C)C)CN1c2ccccc2Sc2ccccc21 (stereo not given)
- T/C [11]: 104 % of control
- T/C [6]: 101 % of control

Structure (SMILES): CN(C)C(=S)S
- T/C [20]: 118 % of control
- T/C (dose: 25.0 mg/kg/injection, schedule: Q04DX003 (ip), vehicle: Klucel (hydroxypropylcellulose) (HPC)): 100 % of control
- T/C [10]: 103 % of control
- T/C [7]: 89 % of control
- T/C [12]: 105 % of control
- T/C [21]: 91 % of control
- T/C [3]: 105 % of control
- T/C [13]: 94 % of control
- T/C [22]: 116 % of control
- T/C [4]: 98 % of control
- T/C [14]: 94 % of control
- T/C [24]: 98 % of control
- T/C [5]: 89 % of control
- T/C (dose: 400.0 mg/kg/injection, schedule: Q04DX003 (ip), vehicle: Klucel (hydroxypropylcellulose) (HPC)): 97 % of control

Structure (SMILES): CN(CCCN(C)CCC1CCCCC1)CCC1CCCCC1
- T/C [11]: 92 % of control
- T/C [6]: 95 % of control

Structure (SMILES): CC1OC(C)(C)OC1C(=O)O (stereo not given)
- T/C (dose: 6.25 mg/kg/injection, schedule: Q01DX009 (ip), vehicle: water): 96 % of control
- T/C (dose: 12.5 mg/kg/injection, schedule: Q01DX009 (ip), vehicle: water): 119 % of control
- T/C [1]: 104 % of control
- T/C [2]: 105 % of control

Structure (SMILES): ClC(Cl)(Cl)c1ccc(C(Cl)(Cl)Cl)cc1
- T/C [19]: 102 % of control
- T/C (dose: 100.0 mg/kg/injection, schedule: Q04DX003 (ip), vehicle: saline): 95 % of control
- T/C (dose: 200.0 mg/kg/injection, schedule: Q04DX003 (ip), vehicle: saline): 95 % of control
